From EP3827825A1, “USE OF 3, 4-DIARYLPYRAZOLES AS ANTIBACTERIAL AGENTS” (Wageningen Universiteit, priority 2019, dated 2021)
Values after ≈ are worked out from the molar mass of the structure shown. Where two headings read alike, the source gives them in different places.

Key:
[1] = system: S. aureus Newman; assay: Minimal inhibitory concentration (MIC), double-dilution in broth, OD600; type: cell-based, Staphylococcus aureus Newman; details: unit assumed
Outline: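 Twofold broth dilution series of compound from a DMSO stock, against S. aureus Newman from a 1:100-diluted overnight culture. Plates were incubated for 24 hours, then read at OD600. The MIC is the lowest concentration showing no growth.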

[2] = system: S. suis; assay: as above; type: cell-based, Streptococcus suis; details: unit assumed
Outline: (§1)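 MICs came from two-fold broth dilutions from 5 mg/mL DMSO stocks, with 100-fold-diluted overnight cultures incubated overnight/24 h; growth was read at OD600 and the MIC taken as the lowest concentration without growth. For M. marinum, Middlebrook 7H9 broth was used with 3 days at 30 °C.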

[3] = system: P. multocida; assay: as above; type: cell-based, Pasteurella multocida; details: unit assumed
Outline: as §1

[4] = system: M. marinum; assay: Minimal inhibitory concentration (MIC), Middlebrook 7H9 broth, 3 days at 30 °C; type: cell-based, Mycobacterium marinum; details: unit assumed
Outline: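 Compounds from DMSO stock were twofold serially diluted in broth (starting 50 µg/mL) and inoculated with overnight bacterial culture; after 24 h, OD600 was read and the MIC taken as the lowest concentration without growth. M. marinum was tested in Middlebrook 7H9 broth, read after 3 days at 30 °C.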

[5] = system: E. coli JW5503; type: cell-based, Escherichia coli; details: unit assumed
Outline: as §1

[6] = system: E. faecium Van A; assay: Minimal inhibitory concentration (MIC), double-dilution in broth, OD600; type: cell-based, Enterococcus faecium; details: unit assumed
Outline: as §1

[7] = system: HEK293; assay: Cell toxicity, Alamar blue assay, 24 hours exposure; type: cell-based; details: Homo sapiens
Outline: (§2)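 NRK-52E or HEK293 cells were exposed for 24 h to compounds (0.39–500 µg/mL, serum-free medium), mostly in single measurement. After compound removal, resazurin conversion to fluorescent resorufin over 45 min indicated viable cells.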

[8] = system: NRK-52E; assay: as above; type: cell-based; details: Rattus norvegicus, read-out: IC50 NRK-52E (50 mg/mL stock)
Outline: as §2

[9] = HEK293, read-out: IC50 HEK293 (50 mg/mL stock)

Structure (SMILES)	MIC S. aureus Newman [1]	MIC S. suis [2]	MIC P. multocida [3]	MIC M. marinum [4]	MIC E. coli JW5503 [5]	MIC E. faecium Van A [6]	IC50 ([7]; HEK293, read-out: IC50 HEK293 (5 mg/mL stock))	IC50 [7, 9]	IC50 [8]
COc1ccc(-c2[nH]nc(C(F)(F)F)c2-c2ccc(Br)cc2)c(O)c1 [May-23, 2-[4-(4-bromophenyl)-5-(trifluoromethyl)-1∼{H}-pyrazol-3-yl]-5-methoxy-phenol]	3.13 µg/mL (≈ 7.58 µM)	6.25 µg/mL (≈ 15.1 µM)	50 µg/mL (≈ 121 µM)	> 50 µg/mL	3.13 µg/mL (≈ 7.58 µM)	3.13 µg/mL (≈ 7.58 µM)	8.38 µg/mL (≈ 20.3 µM)	9 µg/mL (≈ 21.8 µM)	~2.81 µg/mL (≈ 6.81 µM)
Oc1ccc(-c2n[nH]c(C(F)(F)F)c2-c2ccc(Cl)cc2)c(O)c1 [May-14, 4-[4-(4-chlorophenyl)-5-(trifluoromethyl)-1∼{H}-pyrazol-3-yl]resorcinol]	3.13 µg/mL (≈ 8.82 µM)	12.5 µg/mL (≈ 35.2 µM)	25 µg/mL (≈ 70.5 µM)	> 50 µg/mL	3.13 µg/mL (≈ 8.82 µM)	12.5 µg/mL (≈ 35.2 µM)		10.6 µg/mL (≈ 29.9 µM)	3.04 µg/mL (≈ 8.57 µM)
